This note sets out measurements from patent US20130253011A1, “INSECTICIDAL COMPOUNDS” (SYNGENTA PARTICIPATIONS AG, priority 2010, published 2013).

As to `COc1c(-c2cn(-c3c(C(F)(F)F)c(C(F)(F)C(F)(F)F)nn3C)nn2)cccc1N(C)C(=O)c1c(F)cc(F)cc1F`, the melting point was 80 to 82 °C.
